# Reference: patent US8680096B2, “Diphenyl-pyrazolopyridine derivatives, preparation thereof, and use thereof as nuclear receptor not modulators” (Sanofi-Aventis, priority 2009, dated 2014)
# Biological target: T1, murine Nurr1 receptor (Mus musculus, UniProt Q06219)
# T1 construct: a cell line (N2A) endogenously expressing the murine Nurr1 receptor; host or cells: Neuro-2A (N2A) mouse neuroblastoma cells stably transfected with 8NBRE-luciferase
# Assay: In vitro activity on N2A cells (8NBRE-luciferase reporter)
# Format: cell-based
# Conditions: N2A cells endogenously expressing Nurr1, stably transfected with 8NBRE-luciferase; 24 hours incubation
# Method: Evaluation of the In Vitro Activity on N2A Cells
# The activity of the compounds according to the invention was evaluated on a cell line (N2A) endogenously expressing the murine Nurr1 receptor and stably transfected with the NOT binding response element (NBRE) coupled to the luciferase reporter gene. The tests were performed according to the procedure described hereinbelow.
# The cell line Neuro-2A is obtained from a standard commercial source (ATCC). The clone Neuro-2A was obtained from a spontaneous tumour originating from a strain of albino mice A by R. J Klebe et al. This line Neuro-2A is then stably transfected with 8NBRE-luciferase. The N2A-8NBRE cells are cultured to the point of confluence in 75 cm^2 culture flasks containing DMEM supplemented with 10% foetal calf serum, 4.5 g/L of glucose and 0.4 mg/ml of geneticin. After culturing for one week, the cells are recovered with 0.25% trypsin for 30 seconds and then resuspended in DMEM without phenol red, containing 4.5 g/L of glucose and 10% Hyclone defatted serum, and placed in white, transparent-base 96-well plates. The cells are deposited at a rate of 60 000 per well in 75 4, for 24 hours before adding the products. The products are applied in 25 4 and incubated for a further 24 hours. On the day of measurement, an equivalent volume (100 4) of Steadylite is added to each well, and the wells are then left for 30 minutes to obtain complete lysis of the cells and maximum production of the signal. The plates are then measured in a microplate luminescence counter, after having been sealed with an adhesive film. The products are prepared in the form of a 10^−2 M stock solution, and then diluted in 100% of DMSO. Each concentration of product is prediluted in culture medium before incubation with the cells thus containing 0.625% final of DMSO.
# T1 sequence (Q06219 whole entry): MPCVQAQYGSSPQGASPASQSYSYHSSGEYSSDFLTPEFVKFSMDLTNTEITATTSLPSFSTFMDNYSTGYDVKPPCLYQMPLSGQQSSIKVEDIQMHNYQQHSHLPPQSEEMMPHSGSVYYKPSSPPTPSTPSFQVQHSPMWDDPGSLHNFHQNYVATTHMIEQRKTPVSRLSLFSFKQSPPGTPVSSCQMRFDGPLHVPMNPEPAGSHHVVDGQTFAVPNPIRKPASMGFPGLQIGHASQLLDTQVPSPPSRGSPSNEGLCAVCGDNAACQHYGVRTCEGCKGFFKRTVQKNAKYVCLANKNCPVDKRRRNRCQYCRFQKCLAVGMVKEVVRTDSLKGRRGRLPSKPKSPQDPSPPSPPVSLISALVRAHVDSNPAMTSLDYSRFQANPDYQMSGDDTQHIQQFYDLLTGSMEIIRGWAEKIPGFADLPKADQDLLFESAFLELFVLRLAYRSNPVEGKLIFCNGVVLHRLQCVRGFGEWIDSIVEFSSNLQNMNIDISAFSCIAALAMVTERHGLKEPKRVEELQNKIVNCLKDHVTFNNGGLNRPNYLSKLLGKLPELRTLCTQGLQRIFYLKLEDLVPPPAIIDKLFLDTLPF
row,Compound,EC50
1,"CNC(=O)c1cccc(-c2ccn3nc(-c4ccc(F)cc4)cc3c2)c1C [Compound 10, 3-[2-(4-Fluorophenyl)pyrazolo[1,5-a]pyridin-5-yl]-2,N-dimethylbenzamide]",6.6 nM
2,CNC(=O)c1cccc(-c2ccn3nc(-c4cc(F)cc(F)c4)cc3c2)c1 [Compound 26],1.3 nM
3,"CNC(=O)c1ccc(-c2ccn3nc(-c4ccc(F)cc4)cc3c2)cc1F [Compound 14, 2-Fluoro-4-[2-(4-fluorophenyl)pyrazolo[1,5-c]pyridin-5-yl]-N-methylbenzamide]",125 nM
4,"O=C(c1cccc(-c2ccn3nc(-c4ccc(F)cc4)cc3c2)c1)N1CCCC1 [Compound 16, {3-[2-(4-Fluorophenyl)pyrazolo[1,5-c]pyridin-5-yl]phenyl}pyrrolidin-1-ylmethanone]",326 nM

# The next lines start with the values.
row,EC50,Compound
1,45 nM,"NC(=O)c1cccc(-c2ccn3nc(-c4ccc(Cl)cc4)cc3c2)c1 [Compound 2, 3-[2-(4-Chlorophenyl)pyrazolo[1,5-a]pyridin-5-yl]benzamide]"
2,2 nM,"CNC(=O)c1cccc(-c2ccn3nc(-c4ccc(Cl)cc4)cc3c2)c1 [Compound 4, 3-[2-(4-Chlorophenyl)pyrazolo[1,5-a]pyridin-5-yl]-N-methylbenzamide]"

# Tested on: not given
# Assay: not given
# Conditions: not given
row,Compound,melting point
1,"CNC(=O)c1cccc(-c2ccn3nc(-c4ccccc4C)cc3c2)c1 [Compound 33, N-Methyl-3-(2-o-tolylpyrazolo[1,5-a]pyridin-5-yl)benzamide]",129 to 131 °C
2,"O=C(c1cccc(-c2ccn3nc(-c4ccc(F)cc4)cc3c2)c1)N1CCC(O)C1 (centres unmarked) [Compound 22, {3-[2-(4-Fluorophenyl)pyrazolo[1,5-a]pyridin-5-yl]phenyl}-(3-hydroxy-pyrrolidin-1-yl)methanone]",173 to 175 °C
3,"CNC(=O)c1cccc(-c2ccn3nc(-c4ccc(F)cc4F)cc3c2)c1 [Compound 23, 3-[2-(2,4-Difluorophenyl)pyrazolo[1,5-a]pyridin-5-yl]-N-methylbenzamide]",210 to 212 °C
4,"CNC(=O)c1cccc(-c2ccn3nc(-c4cccc(F)c4)cc3c2)c1 [Compound 27, 3-[2-(3-Fluorophenyl)pyrazolo[1,5-a]pyridin-5-yl]-N-methylbenzamide]",204 to 206 °C
5,"CNC(=O)c1ccc(Cl)c(-c2ccn3nc(-c4ccc(F)cc4)cc3c2)c1 [Compound 12, 4-Chloro-3-[2-(4-fluorophenyl)pyrazolo[1,5-a]pyridin-5-yl]-N-methylbenzamide]",188 to 190 °C
6,CNC(=O)c1cccc(-c2ccn3nc(-c4cc(F)cc(F)c4)cc3c2)c1 [Compound 26],230 to 232 °C
7,"CNC(=O)c1ccc(-c2ccn3nc(-c4ccc(F)cc4)cc3c2)cc1F [Compound 14, 2-Fluoro-4-[2-(4-fluorophenyl)pyrazolo[1,5-c]pyridin-5-yl]-N-methylbenzamide]",227 to 229 °C
8,"CNC(=O)c1cccc(-c2ccn3nc(-c4cccc(F)c4F)cc3c2)c1 [Compound 32, 3-[2-(2,3-Difluorophenyl)pyrazolo[1,5-a]pyridin-5-yl]-N-methylbenzamide]",214 to 216 °C
9,"CNC(=O)c1cc(-c2ccn3nc(-c4ccc(F)cc4)cc3c2)ccc1Cl [Compound 11, 2-Chloro-5-[2-(4-fluorophenyl)pyrazolo[1,5-a]pyridin-5-yl]-N-methylbenzamide]",243 to 245 °C
10,"CNC(=O)c1cccc(-c2ccn3nc(-c4ccc(C(F)(F)F)cc4)cc3c2)c1 [Compound 19, N-Methyl-3-[2-(4-trifluoromethylphenyl)pyrazolo[1,5-a]pyridin-5-yl]benzamide]",220 to 222 °C
11,"O=C(NC1CC1)c1cccc(-c2ccn3nc(-c4ccc(F)cc4)cc3c2)c1 [Compound 15, N-Cyclopropyl-3-[2-(4-fluorophenyl)pyrazolo[1,5-a]pyridin-5-yl]-benzamide]",179 to 181 °C
12,"CC(C)NC(=O)c1cccc(-c2ccn3nc(-c4ccc(F)cc4)cc3c2)c1 [Compound 7, 3-[2-(4-Fluorophenyl)pyrazolo[1,5-a]pyridin-5-yl]-N-isopropylbenzamide]",210 to 212 °C
13,"CNC(=O)c1cccc(-c2ccn3nc(-c4ccc(F)cc4)c(Cl)c3c2)c1 [Compound 34, 3-[3-Chloro-2-(4-fluorophenyl)pyrazolo[1,5-a]pyridin-5-yl]-N-methyl-benzamide]",221 to 223 °C
14,"CNC(=O)c1cccc(-c2ccn3nc(-c4ccccc4F)cc3c2)c1 [Compound 18, 3-[2-(2-Fluorophenyl)pyrazolo[1,5-a]pyridin-5-yl]-N-methylbenzamide]",195 to 197 °C
15,"CNC(=O)c1ccc(C)c(-c2ccn3nc(-c4ccc(F)cc4)cc3c2)c1 [Compound 13, 3-[2-(4-Fluorophenyl)pyrazolo[1,5-a]pyridin-5-yl]-4,N-dimethylbenzamide]",185 to 187 °C
16,"CNC(=O)c1ccc(-c2ccn3nc(-c4ccc(F)cc4)cc3c2)cc1 [Compound 20, 4-[2-(4-Fluorophenyl)pyrazolo[1,5-a]pyridin-5-yl]-N-methylbenzamide]",264 to 266 °C
17,"O=C(c1cccc(-c2ccn3nc(-c4ccc(F)cc4)cc3c2)c1)N1CCCC1 [Compound 16, {3-[2-(4-Fluorophenyl)pyrazolo[1,5-c]pyridin-5-yl]phenyl}pyrrolidin-1-ylmethanone]",164 to 166 °C

# Results, then the compound that gave them:
row,melting point,Compound
1,204 to 206 °C,"CNC(=O)c1cccc(-c2ccn3nc(-c4ccc(C)cc4)cc3c2)c1 [Compound 28, N-Methyl-3-(2-p-tolylpyrazolo[1,5-a]pyridin-5-yl)benzamide]"
2,214 to 216 °C,"CNC(=O)c1cccc(-c2ccn3nc(-c4ccc(F)cc4)cc3c2)c1 [Compound 6, 3-[2-(4-Fluorophenyl)pyrazolo[1,5-a]pyridin-5-yl]-N-methylbenzamide]"
3,175 to 177 °C,"CN(C)C(=O)c1cccc(-c2ccn3nc(-c4ccc(Cl)cc4)cc3c2)c1 [Compound 3, 3-[2-(4-Chlorophenyl)pyrazolo[1,5-a]pyridin-5-yl]-N,N-dimethyl-benzamide]"
4,283 to 285 °C,"NC(=O)c1cccc(-c2ccn3nc(-c4ccc(Cl)cc4)cc3c2)c1 [Compound 2, 3-[2-(4-Chlorophenyl)pyrazolo[1,5-a]pyridin-5-yl]benzamide]"
5,252 to 254 °C,"CNC(=O)c1cccc(-c2ccn3nc(-c4ccc(C#N)cc4)cc3c2)c1 [Compound 31, 3-[2-(4-Cyanophenyl)pyrazolo[1,5-a]pyridin-5-yl]-N-methylbenzamide]"
6,162 to 164 °C,"COC(=O)c1cccc(-c2ccn3nc(-c4ccc(F)cc4)cc3c2)c1 [Compound 5, Methyl 3-[2-(4-fluorophenyl)pyrazolo[1,5-a]pyridin-5-yl]benzoate]"
7,211 to 213 °C,"CNC(=O)c1cccc(-c2ccn3nc(-c4ccc(OC)cc4)cc3c2)c1 [Compound 29, 3-[2-(4-Methoxyphenyl)pyrazolo[1,5-a]pyridin-5-yl]-N-methylbenzamide]"
8,234 to 236 °C,"CNC(=O)c1cccc(-c2ccn3nc(-c4ccc(Cl)cc4)cc3c2)c1 [Compound 4, 3-[2-(4-Chlorophenyl)pyrazolo[1,5-a]pyridin-5-yl]-N-methylbenzamide]"
9,180 to 182 °C,"COC(=O)c1cccc(-c2ccn3nc(-c4ccc(Cl)cc4)cc3c2)c1 [Compound 1, Methyl 3-[2-(4-chlorophenyl)pyrazolo[1,5-a]pyridin-5-yl]benzoate]"
